The supplement of paper PMC5579334

Experiments:
[1] = tested on: HS-PSS; assay: drug sensitivity score (DSS, CellTox-Green cytotoxicity, 72 h) (DSS (dimensionless)); higher = more cytotoxic; extreme values may be limits of the assay
Procedure, shortened: (§1)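 For 72 h at 37 °C, MPNST cell lines and primary human Schwann cells were exposed in 384-well plates to five 10-fold compound dilutions. CellTox-Green, added before seeding at a final 1:1000 dilution, gave fluorescence from DNA released by disrupted cells. Signals were scaled to vehicle and positive-control wells, cultures failing plate quality control were left out, and four-parameter logistic fits were applied. Relative IC50 and drug sensitivity score were derived from the fits, with IC50 censored at the top concentration.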

[2] = tested on: HS-PSS; assay: drug sensitivity score (DSS, CellTiter-Glo viability, 72 h) (DSS (dimensionless)); higher = more sensitive; extreme values may be limits of the assay
Procedure, shortened: (§2)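 After seeding 750–1000 cells per well of MPNST cell lines or primary human Schwann cells into 384-well plates preprinted with each compound at five concentrations in 10-fold steps, plates were kept 72 h at 37 °C, 5% CO2. Viability was read as CellTiter-Glo ATP luminescence relative to vehicle and positive-control wells, with duplicates averaged where present. The data were fitted with four-parameter logistic models. Drug sensitivity score and relative IC50, censored at the top concentration, derive from the fits, and percent inhibition refers to the top concentration.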

[3] = tested on: YST-1; assay: as above
Procedure, shortened: as §2

[4] = tested on: HS-Sch-2; assay: as above
Procedure, shortened: as §2

[5] = tested on: HS-PSS; assay: % inhibition of CellTiter-Glo viability at highest tested concentration (72 h), relative to DMSO and benzethonium chloride controls; higher = more inhibition
Procedure, shortened: as §2

[6] = tested on: YST-1; assay: as above
Procedure, shortened: as §2

[7] = tested on: HS-Sch-2; assay: as above
Procedure, shortened: as §2

[8] = tested on: HS-PSS; assay: relative IC50 (inflection point of fitted dose-response curve, CellTox-Green cytotoxicity, 72 h; top asymptote may be below 50%); higher = less potent
Procedure, shortened: as §1

Structure (SMILES)	drug sensitivity score [1]	drug sensitivity score [2]	drug sensitivity score [3]	drug sensitivity score [4]	% inhibition [5]	% inhibition [6]	% inhibition [7]	relative IC50 [8]
Cc1sc2c(c1C)C(c1ccc(Cl)cc1)=N[C@@H](CC(=O)OC(C)(C)C)c1nnc(C)n1-2 [JQ1] (max concentration tested 10000 nM)	0	10	13.1	13.1	59.1%	72.6%	76.3%	
CC(C)[C@H](C(=O)Nc1ccc(C(=O)NO)cc1)c1ccccc1 [AR-42] (max concentration tested 10000 nM)	5	10	17.8	10.9	88.1%	100%	101%	
NC(=O)c1cccc2cn(-c3ccc(C4CCCNC4)cc3)nc12 (stereo not drawn) [Niraparib] (max concentration tested 10000 nM)	0.21	4.28	7.91	2.37	50.4%	54.5%	26.4%	
O=C(O)CSc1cc(NS(=O)(=O)c2ccc(Br)cc2)c2ccccc2c1O [UMI-77] (max concentration tested 100000 nM)	4.6	6.44	18.2	14.4	101%	102%	101%	
NC(=O)N1CCC(CC(=O)N2CCC([C@H]3c4ncc(Br)cc4CCc4cc(Cl)cc(Br)c43)CC2)CC1 [Lonafarnib] (max concentration tested 10000 nM)	0	4.36	5.95	4.95	58%	64.4%	55.5%	
Cc1cc(-c2nc(-c3ccc(OC(F)(F)F)cc3)no2)nn1Cc1ccnc(N2CCN(C3CC3)CC2)c1 [BAY 87-2243] (max concentration tested 1000 nM)	0	31.7	2.18	26.4	74.5%	15.5%	65.9%	
C#Cc1cccc(Nc2ncnc3cc4c(cc23)OCCOCCOCCO4)c1 [Icotinib] (max concentration tested 10000 nM)	0	0.72	1.96	1.37	16.4%	23.8%	19.6%	
CN1CCN(C2CCN(C(=O)Nc3cc(Oc4ccc(NC(=O)C5(C(=O)Nc6ccc(F)cc6)CC5)c(F)c4)ccn3)CC2)CC1 [Golvatinib]								> 2.5 µM
O[C@H]1CC[C@H](Nc2ncc3nc(Nc4c(F)cc(F)cc4F)n([C@H]4CCOC4)c3n2)CC1 [Tanzisertib] (max concentration tested 10000 nM)	0	0	1.56	0	-0.16%	11.6%	-2.81%	
COc1cc(Br)c(Nc2nc(-c3c(C)nc4ncccn34)cs2)c(Br)c1 [PTC-209] (max concentration tested 10000 nM)	0	7.63	6.29	7.96	84.8%	94.4%	81%	
COc1cc(N2CCN(C)CC2)ccc1Nc1nccc(-c2cn(C)c3cnccc23)n1 [AZ191] (max concentration tested 10000 nM)	1.42	5.3	3.96	5.07	80.5%	76.4%	95.6%	
NCC(=O)Nc1ccc(-n2nc(C(F)(F)F)cc2-c2ccc3c(ccc4ccccc43)c2)cc1 (max concentration tested 25000 nM)	7.95	4.86	5.55	7.03	101%	101%	101%	
